Source: patent US20150284452A1, “ANTIMICROBIAL COMPOSITIONS” (priority 2012, published 2015)

Test system: S. aureus NRS384 (USA300)
Assay: MIC assay at multiple inoculum sizes
Assay type: cell-based, Staphylococcus aureus
Text: 5×10^6 cfu/ml and 75 nanomolar against an inoculum of 5×10^8 cfu/ml.

[1] = High Titer 5,000,000 CFU/well, ND = higher than highest tested concentration
[2] = High Titer 500,000,000 CFU/well, ND = higher than highest tested concentration
[3] = Low Titer 50,000,000 CFU/well, ND = higher than highest tested concentration

In the case of “Lysostaphin (Sigma L9043): lysostaphin control (Sigma L9043), glycylglycine endopeptidase”, the “MIC Rep 1” value [1] is reported as 0.0271 µM, the “MIC Rep 2” value [1] is reported as 0.0271 µM and the “MIC Ave” value (High Titer 5,000,000 CFU/well, average of replicates) is reported as 0.0271 µM. The “MIC Ave” value [2] was 0.2 µM, the “MIC Rep 2” value [2] was 0.2 µM and the “MIC Rep 1” value (Low Titer 50,000 CFU/well) was 0.054 µM. The “MIC Rep 2” value (Low Titer 50,000 CFU/well) was 0.0271 µM, the “MIC Ave” value (Low Titer 50,000 CFU/well, average of replicates) was 0.0407 µM and the “MIC Ave” value [3] was 0.2 µM. The “MIC Rep 1” value [3] was 0.2 µM and the “MIC Rep 2” value [3] was 0.2 µM.
